Experimental data taken from a melting point compilation (Tetko et al.; mined from patent text by program, amines drawn as free bases though some values may be those of a salt).
Residues, ends and D or L forms follow the SMILES beside them.

Row | Structure (SMILES) | melting point
1 | O=C(O)COc1ccc(CC(Cc2ccccc2)NS(=O)(=O)c2ccc(Cl)cc2)cc1 (stereo not drawn) | 150 to 151 °C
2 | CN1Cc2ccccc2C(=O)c2cc(CC(=O)O)ccc21 | 194 to 196 °C
3 | CCCCNCC(=O)Nc1ccc2c(c1)C(=O)c1cc(NC(=O)CNCCCC)ccc1C2=O | 125 °C
4 | CC1(C)Oc2ccc(S(=O)(=O)c3ccc(O)cc3)cc2[C@@H](Oc2ccc(O)nn2)[C@]1(C)O | > 200 °C
5 | COc1cc(COc2nn(-c3ccccc3)cc2CC#N)ccc1OCc1nc(-c2ccccc2)oc1C | 137 to 138 °C
6 | CCOC(=O)C=Cc1ccc(OCc2ccccn2)cc1 | 95 °C
7 | COc1ccc(CCNc2cc(-n3cccn3)nc(-c3cccs3)n2)cc1OC | 116 to 117 °C
8 | CC(N)C(=O)N(CCC(=O)O)C1Cc2ccccc2C1 (stereo not drawn) | 205 to 206 °C
9 | COc1cc(CCBr)cc2c1OCO2 | 78 to 79 °C
10 | CC(NC(=O)C(N)Cc1ccccc1)C(=O)NCC(=O)NC(Cc1ccccc1)C(=O)NCC(=O)NC(CCCNC(=N)N)C(=O)O (stereo not drawn) (H-FAGFGR-OH; configuration not given here) | 154 to 156 °C
11 | CC(C)(C)Oc1nc2cc(F)c([N+](=O)[O-])cc2nc1Cl | 141 to 143 °C
12 | O=C(NC(Cc1ccc(OCc2ccccc2)cc1)C(=O)O)c1cc2ccc(-c3ccc(Cl)cc3)cc2s1 (stereo not drawn) | 237 to 239 °C
13 | N[C@@H](Cc1cccc(OC(F)(F)C(F)F)c1)[C@H](O)c1ccc(Oc2ccccc2)cc1 (racemic) | 85 to 86 °C
14 | CS(=O)(=O)On1c(=O)c2cc3c(=O)n(OS(C)(=O)=O)c(=O)c3cc2c1=O | > 300 °C
15 | COc1ccc2c(c1)CCC1CCNC(=O)C(CCNC(C)C)=C21 (stereo not drawn) | 147 to 149 °C
16 | O=c1[nH]c2cc(Br)ccc2c(=O)n1Cc1ccc(Br)cc1F | > 280 °C
17 | Cc1cc(CCCCCOc2c(Cl)cc(-c3cccs3)cc2Cl)on1 | 45 to 47 °C
18 | CNS(=O)(=O)Cc1cc(Br)c(NC(=O)C(F)(F)F)c(Br)c1 | 179 to 180 °C
19 | COC(=O)c1cc(N=Nc2ccc(S(=O)(=O)Cl)cc2)ccc1O | 137 to 138 °C
20 | CSc1nc(N)c([N+](=O)[O-])c(N2CCS(=O)CC2)n1 | 239 to 242 °C
21 | Cc1cc(C)c(C(CO)c2ccc(C(C)C)cc2)c(O)c1C (stereo not drawn) | 101 to 102 °C
22 | COc1nc(-c2ccc(C(=O)O)cc2)cc2cccnc12 | > 300 °C
23 | NS(=O)(=O)c1ccc(-c2cnn(CC=C(Cl)Cl)c(=O)c2-c2ccc(F)cc2)cc1 | 184 to 185 °C
24 | CC(=O)c1cccc(-c2cncc(OC3SCC(O)C(O)C3O)c2)c1 (stereo not drawn) | 159 to 163 °C
25 | COc1nc(C)cnc1NS(=O)(=O)c1cccnc1-c1ccc(NC(C)C)cc1 | 105 to 107 °C

Row | Structure (SMILES) | melting point
26 | COc1ccc(CN2CCc3c(cnc4[nH]ncc34)C2)cc1 | 184 to 186 °C
27 | CCOC(=O)c1cn(C)c2cc(C)sc2c1=O | 143 to 144 °C
28 | O=C(O)c1cc(=O)c2cc(F)ccc2o1 | 261 to 262 °C
29 | CCN(CC)CCOc1ccc2c(c1)cc(OC)c1cc(OCCN(CC)CC)ccc12 | 63 to 65 °C
30 | O=c1cc(-c2ccccc2)oc2c(CN3CCC(O)CC3)c(O)c(O)c(O)c12 | 221 °C
31 | COc1ccc(-c2ccc(O)c(C34CC5CC(CC(C5)C3)C4)c2)cc1C=C1SC(N2CCOCC2)=NC1=O | 355 to 360 °C
32 | CCC1CC(=O)Nc2c1cnn2CC (stereo not drawn) | 203 to 204 °C
33 | O=C1CCC(N2Cc3c(NCc4cccc(Cl)c4)cccc3C2=O)C(=O)N1 (stereo not drawn) | 253 to 255 °C
34 | O=C(O)C1(C(=O)O)C=CC=CN1 | 186 °C
35 | CCOC(=O)CCCC(=O)CNC(=O)c1csc(NC(=O)NCc2ccccn2)n1 | 110 °C
36 | CCOC(=O)C1=C(C)NC(C)=C(C(=O)OCC)C1c1ccccc1/C=C/C(=O)OC(CC(C)C)CC(C)C | 49 to 52 °C
37 | Cc1ccc(C=CC(=O)C2CC2)cc1 | 75 to 76 °C
38 | CC(C)(C)OC(=O)N1CCN(S(=O)(=O)c2ccc(N)c(Cl)c2)CC1 | 243 to 244 °C
39 | CCCCCCCCCCCN(O)C(=O)N(C)C | 54 to 55 °C
40 | Cc1nc2cc3c(cc2c(=O)[nH]1)C(N(C)c1ccc(C(=O)NC(CCc2nnnn2CC(=O)O)C(=O)O)c(F)c1)CC3 (mixture of isomers) | 232 to 235 °C
41 | CCOC(=O)c1ccc(C=Cc2cc3ccccc3s2)s1 | 116 to 117 °C
42 | CCSc1cc(SCC)c2ccc3c(SCC)cc(SCC)c4ccc1c2c43 | 180 °C
43 | O=C1CCC(N2C(=O)c3cccc(OCc4ccc(CN5CCN6N=C(C(F)(F)F)NC6C5)cc4)c3C2=O)C(=O)N1 (stereo not drawn) | 128 to 130 °C
44 | CCc1cccc2[nH]c(=O)oc(=O)c12 | 202 to 204 °C
45 | CCOC(=O)C(C)ON=C(C)C (stereo not drawn) | 59 to 61 °C
46 | CCCc1ccc(S(=O)(=O)NN2CCOCC2)cc1 | 150 to 152 °C
47 | O=C(Nc1n[nH]c(=S)s1)NC(CC1CCCCC1)C(=O)NCCc1ccccc1 (stereo not drawn) | 199 to 200 °C
48 | O=C(O)CCC(=O)N1C2CCC(C2)C1C(=O)O (stereo not drawn) | 132 to 135 °C
49 | CSc1nccc(Oc2ccc(NC(=O)OC(C)(C)C)c3ccccc23)n1 | 173 to 174 °C
50 | COC(=O)c1ccc(O)cc1[N+](=O)[O-] | 161 to 166 °C

Row | Structure (SMILES) | melting point
51 | O=C(O)CN(C(=O)CCCOc1ccc2c(c1)CN1CC(=O)NC1=N2)C1CCCCC1 | 194 to 195 °C
52 | Cc1oc(-c2ccccc2)nc1COc1ccccc1COc1ccc(CC(=O)O)cc1 | 173 to 174 °C
53 | N#CCCNC(=O)c1cccc(-c2cccc3oc(Cc4cccc(C(F)(F)F)c4)nc23)c1 | 117 to 118 °C
54 | Cc1ccc(S(=O)(=O)OCC(COC(C)(C)C)OS(=O)(=O)c2ccc(C)cc2)cc1 (single isomer, unassigned; (+)) | 70 to 71 °C
55 | COc1cc2nc(S(=O)(=O)Nc3c(OC)ccnc3Cl)nn2c(OC)n1 | 197 to 199 °C
56 | Fc1cc(F)c2c(c1)CCC2n1cc[nH]c1=S (stereo not drawn) | 212 to 215 °C
57 | CCOC(=O)c1c(CC)ncnc1NCCc1ccc(CCOS(C)(=O)=O)cc1 | 84 to 86 °C
58 | Cc1cc(C(c2cc(C)sc2C)c2cc(C)sc2C)c(C)s1 | 143 to 144 °C
59 | COc1cc(C2C3=C(COC3=O)Nc3ccc4ncsc4c32)cc(OC)c1OC (stereo not drawn) | 309 to 310 °C
60 | CCCCCCN(C)c1ccc(C=C2SC(=S)N(CC(=O)NS(C)(=O)=O)C2=O)cc1 | 227 to 230 °C
61 | CCNC(=O)c1c([Si](C)(C)C)ccc(OC)c1Cl | 136 to 137 °C
62 | CC(=O)OC1CSC(Oc2ccc(-c3ccc(Cl)nc3)nc2)C(OC(C)=O)C1OC(C)=O (stereo not drawn) | 204 °C
63 | COc1c(N2CCNCC2)c(F)c(N)c2c(=O)c(C(=O)O)cn(C3CC3)c12 | 271 to 273 °C
64 | N#Cc1c(O)nsc1S(=O)(=O)Cc1ccccc1 | 181 to 183 °C
65 | Cn1c(=O)c(-c2ccccc2Cl)cc2cnc(NC3CCS(=O)(=O)CC3)nc21 | 206 to 207 °C
66 | COC(=O)CCCCc1ccc(CCNC(C)=O)cc1 | 57 to 59 °C
67 | O=C(C[C@@H](CCCC1CCCCC1)c1nc(Cn2cncn2)no1)NO | 118 to 120 °C
68 | COC(=O)[C@@H](NC(=O)Nc1n[nH]c(=S)s1)c1ccccc1 | 137 to 139 °C
69 | Cc1c(Cc2cccnc2)oc2ccc(Br)cc12 | 57 to 58 °C
70 | CCn1cc(C(=O)O)c(=O)c2cc(F)c(N3CCNC(CF)C3)cc21 (stereo not drawn) | 177 to 180 °C
71 | COc1cc(OC)c(-c2cccs2)cc1C=O | 125 to 126 °C
72 | CC(C)(C)c1cc(/C=C/C(=O)CC(=O)/C=C/c2cc(C(C)(C)C)c(O)c(C(C)(C)C)c2)cc(C(C)(C)C)c1O | 192 to 196 °C
73 | COc1cc(C(=O)O)ccc1C(C)c1c[nH]c2ccc(C(=O)NCCC(C)C)cc12 (stereo not drawn) | 190 to 191 °C
74 | O=C1OC(c2ccccc2)=NC1Cc1ccccc1 (racemic) | 70 to 72 °C
75 | CC[C@H](CO)NC(=O)c1ccc(C(=O)N2CCN(c3ncccc3NC(C)C)CC2)nc1 | 85 to 88 °C

Row | Structure (SMILES) | melting point
76 | O=C(CC1CCCC1)c1c(-c2ccc3cc(O)ccc3c2)oc2ccccc12 | 189 to 190 °C
77 | CON(Cc1ccc(F)cc1Cl)C(=O)C1=C(O)C(=O)N(C)C1 | 152 to 155 °C
78 | O=C1c2ccccc2C(=O)N1CCCCN1CCC(c2c[nH]c3ccccc23)CC1 | 106 to 108 °C
79 | O=C(NNc1nc2ccccc2n2cccc12)c1cc2ccccc2[nH]1 | 186 °C
80 | CC(C)c1nc(-c2ccc(F)cc2)c(-c2ccc(F)cc2)n1/C=C/[C@@H](O)C[C@@H](O)CC(=O)O | 172 to 173 °C
81 | COc1ccc(COC(=O)NC(C(=O)O)c2cccs2)cc1 (stereo not drawn) | 153 to 156 °C
82 | Cn1c(C(F)(F)F)cc(=O)n(-c2ccc3snc(C4SCCS4)c3c2)c1=O | 227 to 232 °C
83 | O=C1c2ccc(-c3cccc(C(F)(F)F)c3)cc2CC1Br (stereo not drawn) | 96 °C
84 | O=C(O)CCC(=O)Nc1cccc(-c2ccnc3c(C(=O)c4cccs4)cnn23)c1 | 240 to 241 °C
85 | CCN(CC)CCNC(=O)c1cccc2c(=O)c3cc(I)ccc3[nH]c12 | 140 to 142 °C
86 | COc1ccc2c(c1)C(N)=NCC2 | 114 to 118 °C
87 | C=C=Cn1[nH]c2ccccc2c1=O | 126 to 130 °C
88 | CC(CO)(CCCCN1C(=O)c2ccccc2C1=O)c1ccccc1 (stereo not drawn) | 149 to 150 °C
89 | CN(C)C(=S)SC(C[N+](=O)[O-])c1ccco1 (stereo not drawn) | 67 to 68 °C
90 | CCCCCCCCCCCCNC(=O)c1cc(Br)c(OCCn2cnnn2)c(-c2cccc(C(F)(F)F)c2)c1 | 91.5 to 92.6 °C
91 | CC1Nc2ccccc2N2CCc3cc(Cl)cc1c32 (stereo not drawn) | 167 to 170 °C
92 | CC(C)c1noc(-c2ncn3c2[C@@H]2CCCN2C(=O)c2c(Cl)cccc2-3)n1 | 187 to 188 °C
93 | COc1cn(-c2ccc(-n3cccn3)cc2F)nc(-c2ccnn2-c2cccc(OC(F)(F)F)c2)c1=O | 148 to 150 °C
94 | O=c1[nH]c2ccccc2cc1-c1csc(-c2cccnc2)n1 | 197 to 198 °C
95 | CCC(C)(C)NC(=S)Nc1cc(Cl)cc(Cl)c1 | 134 to 136 °C
96 | Cc1nccn1-c1nc(-c2ccc(Cl)cc2)c(CCC(=O)OCc2ccccc2)o1 | 71 to 72 °C
97 | Cc1c(/C=C/C(=O)c2cn(C)c3ccccc23)ncn1C(c1ccccc1)(c1ccccc1)c1ccccc1 | 216 to 219 °C
98 | CC(C(=O)O)c1ccc([N+](=O)[O-])c(CC(=O)O)c1 (stereo not drawn) | 169 to 171 °C
